# Assay results from US9757408B2 (Hayashibara Co., Ltd., priority 2010, dated 2017).
# How the values were obtained:
# [1] = test system: IFN-γ production of spleen cells; test: IFN-γ production of spleen cells stimulated with anti-CD3 antibody, from gel-treated mice (Experiment 16); type: in vivo, NC/Nga mice
# Method: (§1) On Friday of the 6th week of the induction (46th day after initiating the application), all the mice were sacrificed, followed by isolating their spleens and collecting spleen cells in usual manner. […] To each well 2 μg/mL of “Purified Mouse CD3ε Monoclonal Antibody”, a product name of an anti-CD3 antibody, commercialized by Cosmo Bio Co., Ltd., Tokyo, Japan, was added, and the cells were incubated at 37° C. for three days in a 5% v/v CO2 incubator, followed by assaying the levels of cytokines in each supernatant thereof.
# (§2) The results are in Table 19 in parallel.
# NHEK cells = test: Proliferation of NHEK cells irradiated with ultraviolet rays, fluorescent intensity (Experiment 17); type: cell-based, human; conditions: stimulation by ultraviolet rays
# Method: “CELLMATRIX TYPE IV”, a product name of collagen for tissue culture commercialized by Nitta Gelatin Inc., Osaka, Japan, which had been diluted with PBS(K-) by 10 times, was previously placed in “FALCON 35-3001”, a product name of 35 mm petri dish commercialized by Becton Dickinson and Company, NJ, USA, in an amount of 1 mL/plate, and then allowed to stand at ambient temperature for 10 min, followed by removing an excessive amount of CELLMATRIX, drying the petri dish in air, and washing it thrice with PBS(K-). […] The cells were cultured at 37° C. in a 5% v/v CO2 incubator. On the 2nd and 4th days after the cell inoculation, the medium was replaced with EpiLife medium free of EDGS (1 mL/plate). On the 5th day after the cell inoculation, the supernatant was removed, and the petri dish was washed twice by adding 1 mL/petri dish of Hanks' balanced salt solution (called “HBSS (−) buffer”, hereinafter). Further, 2 mL/petri dish of HBSS (−) buffer was added to the petri dish which was then placed in the position 15 cm apart from an ultraviolet ray light source and irradiated with 40 mJ/cm^2 of ultraviolet B radiation. […] As an ultraviolet ray light source, “NS-8F”, a light source for actual use commercialized by Sanwa Medical Co., Ltd., Okayama, Japan, equipped with an ultraviolet B radiation lamp was used, and the radiation dose was measured on “UVR-305/365D (II)”, an ultraviolet ray meter commercialized by Topcon Corporation, Tokyo, Japan. TNF-α was assayed by the same method as in Experiment 2. The remaining other cytokines were assayed with an IL-1α assay kit, commercialized by R & D Systems Inc., MN, USA, and an IL-8 assay kit commercialized by BioLegend, CA, USA.
# [2] = test system: TNF-α production from mouse intraperitoneal macrophages; test: IC50 for TNF-α production from mouse macrophages, LPS + IFN-γ, nucleic acid derivatives (Experiment 19); type: cell-based; conditions: Mus musculus, Macrophage, 20 h, read-out: IC50 Concentration TNF-α
# Description: After completion of the culture, the supernatant in each well was collected and assayed for cytokines and prostaglandin E2 (called “PGE2”, hereinafter) with ELISA.
# [3] = test system: mice with colitis induced by dextran sulfate sodium; test: Dextran sulfate sodium colitis mice: diarrhea/hematochezia scores, DAI, haptoglobin (Experiment 13); type: in vivo, C57BL/6 mice; conditions: dextran sulfate sodium intake, 94 mg/kg orally once a day
# Method: Dextran sulfate sodium (commercialized by MP Biomedicals, CA, USA, molecular weight of 36,000 to 50,000) was dissolved in tap water, and all the mice of these five groups consisting of eight heads each were allowed to freely take the solution for five days (Experiment groups 2 to 5). […] The eight mice of the remaining one group were administered through a gastric tube with PBS once a day at a dose of 0.2 mL/head over 11 days from the day of initiating the administration of dextran sulfate sodium (Experiment group 2). The five mice of one group, which had not been administered with dextran sulfate sodium, were bred for 11 days on the normal feed while allowing them to take tap water freely (Experiment group 1).
# The mice were weighed and their degree of diarrhea and hematochezia were macroscopically observed every day over 11 days from the day of initiating the intake of dextran sulfate sodium. The body weight reduction percentage (%) was determined by dividing the body weight of a mouse at 11th day after initiating the intake of dextran sulfate sodium by the body weight of the mouse at the day of initiating the intake, and multiplying the value by 100, and subtracting the resulting value from 100. The scores of diarrhea and hematochezia and the body weight reduction percentage (%) in each mouse were scored according to the criteria as shown in Table 13. For each group, the average of the total scores of diarrhea and hematochezia on days ranging from the day (intake day 0) of initiating the intake of dextran sulfate sodium to 11th day therefrom (intake day 10) are determined and shown in Table 14. The total scores of diarrhea, hematochezia, and body weight reduction percentage for each mouse at 11th day (intake day 10) after initiating the intake of dextran sulfate sodium are calculated for disease activity index (DAI) used as an index for colitis, averaged for each group, and shown in Table 14. On 11th day after initiating the intake of dextran sulfate sodium, each mouse was collected blood, followed by assaying haptoglobin or an acute phase protein, as an index for inflammatory, on an ELISA kit commercialized by Life Diagnostics USA, and averaging the data for each group. The results are in Table 14 in parallel. Since one mouse in Experiment group 2 administered with only dextran sulfate sodium was dead at 11th day after initiating the intake of dextran sulfate sodium, the results of Experiment group 2 at 11th day (intake day 10) after initiating the intake of dextran sulfate sodium represent the average of seven mice.
# [4] = test system: IL-6 production of spleen cells; test: IL-6 production of spleen cells stimulated with anti-CD3 antibody, from gel-treated mice (Experiment 16); type: in vivo, NC/Nga mice
# Method: as §1, §2
# [5] = test system: picryl chloride-sensitized mice; test: Picryl chloride-sensitized mice atopic dermatitis, skin score (Experiment 16); type: in vivo, NC/Nga mice
# Description: as §2
# [6] = test system: IL-5 production of spleen cells; test: IL-5 production of spleen cells stimulated with anti-CD3 antibody, from gel-treated mice (Experiment 16); type: in vivo, NC/Nga mice
# Method: as §1, §2
# [7] = compared to mice applied with gel prepared by adding refined water (Experiment group 1)
# [8] = supernatant of spleen cells stimulated with anti-CD3 antibody, picryl chloride-sensitized mice applied with gel
structure (smiles),measurement,setting,value
"OC[C@H]1O[C@@H](n2cnc3c(O)ncnc32)[C@H](O)[C@@H]1O [IN, inosine]",production level of IFN-γ of spleen cells stimulated with the anti-CD3 antibody,[1]; [7],showed no difference
same,Content of IFN-γ,[1]; [8],13.2 pg/mL
same,Proliferation,NHEK cells; 1 μM,5643 Fluorescent intensity
same,Proliferation,NHEK cells; 5 μM,5611 Fluorescent intensity
same,Proliferation,NHEK cells; 10 μM,5633 Fluorescent intensity
same,IC50,[2],> 200 µM
same,Content of haptoglobin,[3]; blood on 11th day,3.9 mg/mL
same,"Total scores of diarrhea and hematochezia, day 0",[3]; day 0,0
same,"Total scores of diarrhea and hematochezia, day 1",[3]; day 1,0
same,"Total scores of diarrhea and hematochezia, day 2",[3]; day 2,0
same,"Total scores of diarrhea and hematochezia, day 3",[3]; day 3,0.1
same,"Total scores of diarrhea and hematochezia, day 4",[3]; day 4,0.8
same,"Total scores of diarrhea and hematochezia, day 5",[3]; day 5,1.1
same,"Total scores of diarrhea and hematochezia, day 6",[3]; day 6,1.2
same,"Total scores of diarrhea and hematochezia, day 7",[3]; day 7,1.1
same,"Total scores of diarrhea and hematochezia, day 8",[3]; day 8,1.2
same,"Total scores of diarrhea and hematochezia, day 9",[3]; day 9,1.2
same,"DAI (total scores of diarrhea, hematochezia, and body weight reduction percentage), day 10",[3]; day 10,4.1
same,"Total scores of diarrhea and hematochezia, day 10",[3]; day 10,1.3
same,production level of IL-6 of spleen cells stimulated with the anti-CD3 antibody,[4]; [7],showed no difference
same,Content of IL-6,[4]; [8],150 ng/mL
same,"Skin score, 21 days after the day of sensitizing with picryl chloride","[5]; gel on dorsal skin twice a day (ANO 14 mg/mL, AN or IN 13 mg/mL, prednisolone 6.7 mg/mL from 3rd induction week), day 21",0.50
same,"Skin score, 24 days after the day of sensitizing with picryl chloride","[5]; gel on dorsal skin twice a day (ANO 14 mg/mL, AN or IN 13 mg/mL, prednisolone 6.7 mg/mL), day 24",0.50
same,"Skin score, 28 days after the day of sensitizing with picryl chloride","[5]; gel on dorsal skin twice a day (ANO 14 mg/mL, AN or IN 13 mg/mL, prednisolone 6.7 mg/mL), day 28",2.50
same,"Skin score, 31 days after the day of sensitizing with picryl chloride","[5]; gel on dorsal skin twice a day (ANO 14 mg/mL, AN or IN 13 mg/mL, prednisolone 6.7 mg/mL), day 31",3.22
same,"Skin score, 35 days after the day of sensitizing with picryl chloride","[5]; gel on dorsal skin twice a day (ANO 14 mg/mL, AN or IN 13 mg/mL, prednisolone 6.7 mg/mL), day 35",5.20
same,"Skin score, 39 days after the day of sensitizing with picryl chloride","[5]; gel on dorsal skin twice a day (ANO 14 mg/mL, AN or IN 13 mg/mL, prednisolone 6.7 mg/mL), day 39",5.66
same,"Skin score, 42 days after the day of sensitizing with picryl chloride","[5]; gel on dorsal skin twice a day (ANO 14 mg/mL, AN or IN 13 mg/mL, prednisolone 6.7 mg/mL), day 42",6.00
same,"Skin score, 45 days after the day of sensitizing with picryl chloride","[5]; gel on dorsal skin twice a day (ANO 14 mg/mL, AN or IN 13 mg/mL, prednisolone 6.7 mg/mL), day 45",5.43
same,production level of IL-5 of spleen cells stimulated with the anti-CD3 antibody,[6]; [7],showed no difference
same,Content of IL-5,[6]; [8],209 ng/mL
